Laboratory results taken from paper PMC3973950, “Synthesis of 5-arylidine amino-1,3,4-thiadiazol-2-[(N-substituted benzyol)]sulphonamides endowed with potent antioxidants and anticancer activity induces growth inhibition in HEK293, BT474 and NCI-H226 cells” (Medicinal Chemistry Research, 2013).

Tests used:
[1] = In vitro cytotoxicity by MTT assay, HEK 293; format: cell-based, human; details: human, HEK 293 cells, read-out: % cytotoxicity (100 − % cell survival) of HEK 293 cell line
Experimental: (§1) The cancer cell line cultures of HEK 293 ([…]), BT474 (breast cancer cell line) and NCI-H226 (lung cancer) were obtained from Pasteur Institute of India, Coonoor, India, and were cultured in RPMI-1640 and 10 % heat-[…] New born calf serum with antibiotics [penicillin ([…]), streptomycin (100 μg/mL) and amphotericin B (25 μg/mL)]. The cells were maintained at 37 °C in a humidified atmosphere with 5 % CO2 and were subcultured twice a week.
(§2) The monolayer cell culture (100 μL) was trypsinized, and the cell count was adjusted to […] using medium containing 10 % new born calf serum. To each well of the 96-well microtitre plate, the diluted cell suspension (approximately 10,000 cells) (0.1 mL) was added and kept for 24 h in incubator at 37 °C in 5 % CO2 atmosphere for cell monolayer formation. After 24 h, when a partial monolayer was formed at the bottom of the well, the supernatant was flicked off, the monolayer was washed once, and different drugs, i.e. synthesized compounds (100 μL), were added to the cells in microtitre plates. The plates were then incubated at 37 °C for 3 days in 5 % CO2 atmosphere, and microscopic examination was carried out and observations recorded every 24 h. After 72 h, the sample solution in the wells was flicked off; MTT dye ([…]) was added to each well; plates were gently shaken and incubated for 4 h at 37 °C in 5 % CO2 incubator. The supernatant was removed and propanol (50 μL) was added; the plates were gently shaken to solubilize the formed formazan. The absorbance was measured using a microplate reader at a wavelength of 490 nm (Edmondson et al., [1988]; Prasad et al., [2005]; Chiruvella et al., [2008]; Chang et al., [2007]).

[2] = system: BT474 (breast cancer cell line); assay: In vitro cytotoxicity by MTT assay, BT474; format: cell-based; details: Homo sapiens, 72 h; for cytotoxicity at 0.005 µM: BT-474, 0.005 μM; for cytotoxicity at 0.005 µM / cytotoxicity at 0.015 µM / cytotoxicity at 0.045 µM / cytotoxicity at 0.13 µM / cytotoxicity at 0.41 µM / cytotoxicity at 1.23 µM / cytotoxicity at 3.7 µM / cytotoxicity at 11.11 µM / cytotoxicity at 33.33 µM / cytotoxicity at 100 µM: read-out: % cytotoxicity (100 − % cell survival) of BT474 cell line; for cytotoxicity at 0.015 µM: BT-474, 0.015 μM; for cytotoxicity at 0.045 µM: BT-474, 0.045 μM; for cytotoxicity at 0.13 µM: BT-474, 0.13 μM; for cytotoxicity at 0.41 µM: BT-474, 0.41 μM; for cytotoxicity at 1.23 µM: BT-474, 1.23 μM; for cytotoxicity at 3.7 µM: BT-474, 3.7 μM; for cytotoxicity at 11.11 µM: BT-474, 11.11 μM; for cytotoxicity at 33.33 µM: BT-474, 33.33 μM; for cytotoxicity at 100 µM: BT-474, 100 μM
Experimental: as §1, §2

[3] = In vitro cytotoxicity by MTT assay, NCI-H226; format: cell-based; details: human, NCI-H226 lung cancer cells, 0.015 μM, read-out: % Cytotoxicity (100 − % cell survival) of NCI-H226 cell line
Experimental: as §1, §2

[4] = system: NCI-H226 (lung cancer cell line); assay: In vitro cytotoxicity by MTT assay, NCI-H226; format: cell-based; details: Homo sapiens, 72 h, read-out: % Cytotoxicity (100 − % cell survival) of NCI-H226 cell line; for cytotoxicity at 0.005 µM: NCI-H226, 0.005 μM; for cytotoxicity at 0.045 µM: NCI-H226, 0.045 μM; for cytotoxicity at 0.13 µM: NCI-H226, 0.13 μM; for cytotoxicity at 0.41 µM: NCI-H226, 0.41 μM; for cytotoxicity at 1.23 µM: NCI-H226, 1.23 μM; for cytotoxicity at 3.7 µM: NCI-H226, 3.7 μM; for cytotoxicity at 11.11 µM: NCI-H226, 11.11 μM; for cytotoxicity at 33.33 µM: NCI-H226, 33.33 μM; for cytotoxicity at 100 µM: NCI-H226, 100 μM
Experimental: as §1, §2

| SMILES | cytotoxicity at 72 h, 0.005 µM [1] | cytotoxicity at 72 h, 0.015 µM [1] | cytotoxicity at 72 h, 0.045 µM [1] | cytotoxicity at 72 h, 0.13 µM [1] | cytotoxicity at 72 h, 0.41 µM [1] | cytotoxicity at 72 h, 1.23 µM [1] | cytotoxicity at 72 h, 3.7 µM [1] | cytotoxicity at 72 h, 11.11 µM [1] | cytotoxicity at 72 h, 33.33 µM [1] | cytotoxicity at 72 h, 100 µM [1] | cytotoxicity at 0.005 µM [2] | cytotoxicity at 0.015 µM [2] | cytotoxicity at 0.045 µM [2] | cytotoxicity at 0.13 µM [2] | cytotoxicity at 0.41 µM [2] | cytotoxicity at 1.23 µM [2] | cytotoxicity at 3.7 µM [2] | cytotoxicity at 11.11 µM [2] | cytotoxicity at 33.33 µM [2] | cytotoxicity at 100 µM [2] | also measured |
| --- | --- | --- | --- | --- | --- | --- | --- | --- | --- | --- | --- | --- | --- | --- | --- | --- | --- | --- | --- | --- | --- |
| Nc1nnc(S(=O)(=O)NC(=O)c2ccccc2O)s1 [Compound 4d] | 37.3% | 38.3% | 39.4% | 40.5% | 42.1% | 42.4% | 44.6% | 47% | 47.6% | 48.1% | 23.2% | 24.2% | 25.3% | 26.2% | 26.8% | 27.1% | 28.1% | 29.4% | 30.3% | 32.1% | cytotoxicity at 72 h, 0.015 µM [3]: 35.1%; cytotoxicity at 0.005 µM [4]: 34.2%; cytotoxicity at 0.045 µM [4]: 35.2%; cytotoxicity at 0.13 µM [4]: 36.3%; cytotoxicity at 0.41 µM [4]: 37.3%; cytotoxicity at 1.23 µM [4]: 38%; cytotoxicity at 3.7 µM [4]: 38.3%; cytotoxicity at 11.11 µM [4]: 39.7%; cytotoxicity at 33.33 µM [4]: 42.1%; cytotoxicity at 100 µM [4]: 42.6% |
| Nc1nnc(S(=O)(=O)NC(=O)c2ccc([N+](=O)[O-])cc2)s1 [Compound 4e] | 30.6% | 31.6% | 34.1% | 34.8% | 35.4% | 37.1% | 38.9% | 39.1% | 40% | 40.2% | 30.9% | 31% | 31.8% | 32.3% | 33.1% | 35.7% | 37% | 37.2% | 38.9% | 40.4% | cytotoxicity at 72 h, 0.015 µM [3]: 28.1%; cytotoxicity at 0.005 µM [4]: 27.3%; cytotoxicity at 0.045 µM [4]: 28.9%; cytotoxicity at 0.13 µM [4]: 29.6%; cytotoxicity at 0.41 µM [4]: 29.9%; cytotoxicity at 1.23 µM [4]: 30.6%; cytotoxicity at 3.7 µM [4]: 31.3%; cytotoxicity at 11.11 µM [4]: 32.2%; cytotoxicity at 33.33 µM [4]: 33.3%; cytotoxicity at 100 µM [4]: 34.6% |
| Nc1nnc(S(=O)(=O)NC(=O)c2cccc([N+](=O)[O-])c2)s1 [Compound 4f] | 24.3% | 26.4% | 28.1% | 28.4% | 28.9% | 29.2% | 30% | 30.7% | 31.2% | 32% | 37.6% | 39% | 41.3% | 43.8% | 45.3% | 48.5% | 50.1% | 52.4% | 55.3% | 59.3% | CC50 ([2]; BT-474, BT474, concentration at which 50 % of the cells are dead, read-out: CTC50 (cytotoxicity concentration)): 1560 nM; cytotoxicity at 72 h, 0.015 µM [3]: 38.6%; cytotoxicity at 0.005 µM [4]: 37.2%; cytotoxicity at 0.045 µM [4]: 39.7%; cytotoxicity at 0.13 µM [4]: 41.6%; cytotoxicity at 0.41 µM [4]: 42.9%; cytotoxicity at 1.23 µM [4]: 45.8%; cytotoxicity at 3.7 µM [4]: 46.5%; cytotoxicity at 11.11 µM [4]: 48.3%; cytotoxicity at 33.33 µM [4]: 50.1%; cytotoxicity at 100 µM [4]: 52.9% |
